Results from publication PMC10482691, “LTP induction by structural rather than enzymatic functions of CaMKII” (Nature, 2023).

Key:
Assay type in all cases: biochemical
PKBγ(h) = PKBγ(h) (Homo sapiens, UniProt Q9Y243); test: Kinase selectivity panel (residual activity at 1 μM); settings: inhibitor at 1 μM; read-out: residual kinase activity in % of maximal activity
PKCα(h) = PKCα(h) (Homo sapiens, UniProt P17252); test: as above; settings: inhibitor at 1 μM; read-out: residual kinase activity in % of maximal activity
PKG1α(h) = PKG1α(h) (Homo sapiens, UniProt Q13976); test: as above; settings: inhibitor at 1 μM; read-out: residual kinase activity in % of maximal activity
PKG1α(h), sequence (Q13976 whole entry): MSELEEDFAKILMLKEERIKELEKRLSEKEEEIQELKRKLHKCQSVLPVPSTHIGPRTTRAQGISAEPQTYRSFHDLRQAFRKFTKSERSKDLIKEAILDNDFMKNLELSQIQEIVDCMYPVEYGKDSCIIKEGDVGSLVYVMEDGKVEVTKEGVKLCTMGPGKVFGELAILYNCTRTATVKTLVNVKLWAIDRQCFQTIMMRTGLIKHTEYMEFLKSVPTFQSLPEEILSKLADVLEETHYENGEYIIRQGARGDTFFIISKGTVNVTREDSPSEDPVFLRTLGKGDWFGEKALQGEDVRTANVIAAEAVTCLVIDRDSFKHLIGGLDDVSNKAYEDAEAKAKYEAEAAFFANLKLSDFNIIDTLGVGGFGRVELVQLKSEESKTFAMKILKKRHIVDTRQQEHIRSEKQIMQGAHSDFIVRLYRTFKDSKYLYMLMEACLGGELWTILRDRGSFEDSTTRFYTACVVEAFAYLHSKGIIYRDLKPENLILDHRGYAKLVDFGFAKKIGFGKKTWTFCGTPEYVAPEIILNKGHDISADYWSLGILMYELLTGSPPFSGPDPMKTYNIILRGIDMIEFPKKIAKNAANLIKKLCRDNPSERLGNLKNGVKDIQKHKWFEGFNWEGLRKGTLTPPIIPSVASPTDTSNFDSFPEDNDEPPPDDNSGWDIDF

CaMKIIα WT = CaMKIIα WT (Homo sapiens, UniProt Q9UQM7); test: In vitro kinase reactions with CaMKII WT ± NM-PP1 (pT286, pS831)
Method: Fig. 4 The CaMKII mutation F89G impairs ATP binding but binds the ATP-competitive inhibitor NM-PP1 that restores GluN2B binding and LTP-induced synaptic translocation. Data are presented as mean values ± s.e.m. a, Schematic of the pharmacogenetic method of ATP-competitive CaMKII inhibition; enlargement of the CaMKII ATP-binding pocket by the F89G mutation allows for selective binding of the ATP-competitive inhibitor NM-PP1. b, Immunoblots of in vitro kinase reactions at 30 °C including GFP–CaMKII WT, K42M and F89G with GST–GluA1-c tail. […] Correlation indices were measured before and after Ionomycin-induced colocalization of GFP–CaMKII (WT, K42M and F89G) with mCherry-2BC, represented as change in the correlation index (vehicle: n = 22, 17, 12 cells; NM-PP1: n = 20, 24, 13 cells; one-way ANOVA, Tukey’s multiple comparisons test). […] CaMKII synaptic enrichment was measured before and after cLTP (n = 13, 14, 14 cells; RM two-way ANOVA with Šídák’s multiple comparisons test). […] CaMKII synaptic enrichment was measured before and after cLTP (n = 7, 6, 7 cells; RM two-way ANOVA with Šídák’s multiple comparisons test). […]
CaMKII-mediated phosphorylation of GluA1 S831 or GluN2B S1303 was measured by in vitro kinase reaction with a purified GST–GluA1 C-terminal tail or GST-GluN2B C-terminal tail. […]

PKBγ(h), sequence (Q9Y243 whole entry): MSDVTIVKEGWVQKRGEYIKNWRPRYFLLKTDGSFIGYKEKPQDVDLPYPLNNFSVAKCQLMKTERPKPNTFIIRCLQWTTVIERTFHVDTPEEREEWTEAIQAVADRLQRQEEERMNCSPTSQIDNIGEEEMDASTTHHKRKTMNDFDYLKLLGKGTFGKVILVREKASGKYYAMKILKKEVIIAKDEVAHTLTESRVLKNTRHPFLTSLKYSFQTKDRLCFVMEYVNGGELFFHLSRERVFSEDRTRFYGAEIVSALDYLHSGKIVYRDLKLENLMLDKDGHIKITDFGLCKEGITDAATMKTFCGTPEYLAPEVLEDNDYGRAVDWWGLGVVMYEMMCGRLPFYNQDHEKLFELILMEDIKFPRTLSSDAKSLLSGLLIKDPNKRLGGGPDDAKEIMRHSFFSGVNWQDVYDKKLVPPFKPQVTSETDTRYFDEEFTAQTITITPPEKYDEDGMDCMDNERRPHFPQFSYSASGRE

SMILES	remaining activity at 1 µM (PKBγ(h))	remaining activity at 1 µM (PKCα(h))	remaining activity at 1 µM (PKG1α(h))	effect on pT286 for CaMKII WT (CaMKIIα WT)
NCCNc1cccc(-c2ccnc3[nH]c4ccccc4c23)c1 [AS283]	42%	49%	48%	–
CC(C)(C)n1nc(Cc2cccc3ccccc23)c2c(N)ncnc21 [NM-PP1]	–	–	–	did not affect
